Test results as given in patent publication US11701368B2 (EYE CO PTY LTD, priority 2018, dated 2023).
Like-named read-outs stand apart in the source and are kept apart here.

Key:
[1] = Drug storage stability in saline (accelerated stability trial)
Text: Consequently it was felt to be important to characterise the drug stability over time in aqueous solution as an indicator of likely issues with drug content and/or degradation products in the suspensions on storage.

[2] = Stability of drug aqueous solutions under autoclave conditions; assay type: physicochemical; details: saturated solution, 121° C./30 min
Text: Preferably, the study materials are sterile, at least to a large degree for preclinical studies. In the absence of a facility for complete aseptic manufacture, in order to sterilize the suspensions there are two possible approaches foreseen—autoclaving the final suspensions in ‘vial’, or gamma sterilization.

[3] = Stability of drug aqueous solutions under gamma irradiation; assay type: physicochemical; details: saturated aqueous solution, ~25 kGy at ambient temperature
Procedure: Preferably, the study materials are sterile, at least to a large degree for preclinical studies. In the absence of a facility for complete aseptic manufacture, in order to sterilize the suspensions there are two possible approaches foreseen—autoclaving the final suspensions in ‘vial’, or gamma sterilization. Consequently, in order to initially test the resistance of the drug to degradation in the ‘wet’ environment, drug in saturated solutions were prepared as for the storage stability studies above and subjected to autoclave conditions (121° C./30 min) or gamma irradiation (˜25 kGy at ambient temperature).
Gamma irradiation was conducted at a firm in Melbourne (Steritech; 160 South Gippsland Hwy, Dandenong Sth) and QC certificates provided verifying dose of gamma irradiation received. The samples were exposed to 25 kGy radiation, which severely discoloured the vials, in long term this method may be very suitable when an appropriate glass container, resistant to gamma rays, is used for sample preparation.

[4] = Particle sizing by laser light scattering; assay type: physicochemical; details: as received powder
[5] = Batch production: Av drug content per vial (RGA40/1); assay type: physicochemical; details: batch after freeze drying and gamma sterilization; specification 20.0 ± 2.0 mg
[6] = Batch production: particle size (RGA40/2); assay type: physicochemical; details: for Particle Size D(0.5): specification <20; for Particle Size D(0.9): specification <30
[7] = Batch production: pH (RGA40/3); assay type: physicochemical; details: specification 6.0-8.0
glucocorticoid receptor = target: T1, glucocorticoid receptor (Homo sapiens, UniProt P04150); assay: Glucocorticoid receptor activity (GR potency) of corticosterones; details: relative potency, hydrocortisone (cortisol) = 1
T1 sequence (P04150 1-777): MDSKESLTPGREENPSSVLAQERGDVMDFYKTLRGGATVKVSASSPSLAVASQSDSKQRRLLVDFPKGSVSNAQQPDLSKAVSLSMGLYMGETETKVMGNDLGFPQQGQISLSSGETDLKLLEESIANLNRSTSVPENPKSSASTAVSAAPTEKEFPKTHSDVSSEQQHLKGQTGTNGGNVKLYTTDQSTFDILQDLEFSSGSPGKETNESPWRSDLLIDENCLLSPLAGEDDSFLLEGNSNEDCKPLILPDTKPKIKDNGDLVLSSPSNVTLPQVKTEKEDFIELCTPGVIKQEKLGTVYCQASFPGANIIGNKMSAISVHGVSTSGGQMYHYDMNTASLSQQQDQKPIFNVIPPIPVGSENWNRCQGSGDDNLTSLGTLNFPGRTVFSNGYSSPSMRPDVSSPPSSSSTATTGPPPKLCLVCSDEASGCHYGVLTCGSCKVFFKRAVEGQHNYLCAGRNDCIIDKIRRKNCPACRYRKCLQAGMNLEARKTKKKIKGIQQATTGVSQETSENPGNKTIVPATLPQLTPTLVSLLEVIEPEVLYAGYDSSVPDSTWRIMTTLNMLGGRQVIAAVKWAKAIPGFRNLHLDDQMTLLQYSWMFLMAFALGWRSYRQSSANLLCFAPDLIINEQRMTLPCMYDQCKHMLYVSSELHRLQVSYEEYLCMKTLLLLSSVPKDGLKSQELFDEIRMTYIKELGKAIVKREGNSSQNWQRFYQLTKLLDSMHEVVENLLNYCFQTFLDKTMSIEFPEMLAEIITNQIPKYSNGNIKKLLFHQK

[8] = target: T2, mineralocorticoid receptor (Homo sapiens, UniProt P08235); assay: Mineralocorticoid receptor activity (MR potency) of corticosterones; details: relative potency, hydrocortisone (cortisol) = 1
T2 sequence (P08235 1-984): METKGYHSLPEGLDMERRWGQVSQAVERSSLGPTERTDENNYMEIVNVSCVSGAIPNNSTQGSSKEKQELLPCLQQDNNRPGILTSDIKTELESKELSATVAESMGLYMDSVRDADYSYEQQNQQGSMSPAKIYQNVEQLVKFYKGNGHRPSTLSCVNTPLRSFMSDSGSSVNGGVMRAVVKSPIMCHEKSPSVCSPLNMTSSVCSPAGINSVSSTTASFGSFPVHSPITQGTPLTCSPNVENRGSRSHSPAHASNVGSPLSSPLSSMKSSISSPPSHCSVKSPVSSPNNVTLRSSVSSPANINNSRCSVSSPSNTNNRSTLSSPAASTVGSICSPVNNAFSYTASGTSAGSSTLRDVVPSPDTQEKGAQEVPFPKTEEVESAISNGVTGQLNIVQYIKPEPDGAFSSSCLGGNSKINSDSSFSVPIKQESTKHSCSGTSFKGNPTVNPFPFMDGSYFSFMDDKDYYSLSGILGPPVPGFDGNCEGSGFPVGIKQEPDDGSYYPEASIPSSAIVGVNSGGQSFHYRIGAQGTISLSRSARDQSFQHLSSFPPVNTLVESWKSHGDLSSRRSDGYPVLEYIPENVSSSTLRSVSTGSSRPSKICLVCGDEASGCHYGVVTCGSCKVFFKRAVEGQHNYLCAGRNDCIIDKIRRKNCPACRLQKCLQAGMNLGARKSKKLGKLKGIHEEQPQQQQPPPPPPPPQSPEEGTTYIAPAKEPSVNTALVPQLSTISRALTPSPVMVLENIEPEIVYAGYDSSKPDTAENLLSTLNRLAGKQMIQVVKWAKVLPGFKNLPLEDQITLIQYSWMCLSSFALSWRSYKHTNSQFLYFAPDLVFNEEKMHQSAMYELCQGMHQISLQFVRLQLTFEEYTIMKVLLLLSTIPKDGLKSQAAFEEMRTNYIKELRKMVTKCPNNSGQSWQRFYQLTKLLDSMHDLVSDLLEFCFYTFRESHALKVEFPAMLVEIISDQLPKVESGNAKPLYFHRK

[9] = Aqueous solubility and solubility enhancement with hydroxy-propyl β-cyclodextrin in saline
Text: FIG. 1: Solubility enhancement for MR compounds and TA in saline with addition of hydroxy propyl β-cyclodextrin (data are mean±sd, n=3). Top: FLU and TA; Bottom: 11-DC; DCS and DCSA.

[10] = system: New Zealand albino rabbit eyes; details: cited from earlier work
[11] = Duration of action (t1/2); details: in vivo; read-out: Duration of action (t1/2 in hours) (converted)

In the case of `C[C@]12CCC(=O)C=C1CC[C@@H]1[C@@H]2CC[C@@]2(C)[C@H]1CC[C@]2(O)C(=O)CO` [11-DC, 11-deoxycortisol], the “drug concentration remaining, % of original concentration” value [1] is reported as over 90%, the “stability of aqueous solution to autoclave conditions” value (from here on “stability of aqueous solution”) [2] is reported as “stable” and the “initial drug content remaining after gamma irradiation” value [3] is reported as “less than 20%”. For the same compound, the “D(v, 0.5)” value [4] was 81 microns, the “D(v, 0.9)” value [4] was 233 microns and the “Av Drug Content per vial” value [5] was “Av Drug RGA40/1 20.0 ± 2.0 mg 18.4 ± 0.5 27 Oct. 2006 Passed”. The “Particle Size D(0.5)” value [6] was “Particle RGA40/2 D(0.5) = <20 7.1 3 Nov. 2006 Passed”, the “Particle Size D(0.9)” value [6] was “Size D(0.9) = <30 25” and the pH [7] was “pH RGA40/3 6.0-8.0 7.0 3 Nov. 2006 Passed”.

In the case of `C[C@]12CCC(=O)C=C1CC[C@@H]1[C@@H]2[C@@H](O)C[C@]2(C=O)[C@@H](C(=O)CO)CC[C@@H]12` [Aldosterone], the GR potency (glucocorticoid receptor) is reported as 0.3 and the MR potency [8] is reported as 200-1000.

With `C[C@H]1C[C@H]2[C@@H]3CCC4=CC(=O)C=C[C@]4(C)[C@@]3(Cl)[C@@H](O)C[C@]2(C)[C@@]1(O)C(=O)CO` [Beclometasone] the GR potency (glucocorticoid receptor) was 8 puffs 4 times a day;.

In the case of `C[C@]12CCC(=O)C=C1CC[C@@H]1[C@@H]2C(=O)C[C@@]2(C)[C@H]1CC[C@]2(O)C(=O)CO` [Cortisone], the GR potency (glucocorticoid receptor) is reported as 0.8 and the MR potency [8] is reported as 0.8.

With `C[C@]12CC[C@H]3[C@@H](CCC4=CC(=O)CC[C@@]43C)[C@@H]1CC[C@@H]2C(=O)CO` [DCS, Deoxycorticosterone] the “solubility relative to 11-DC and DCSA” value [9] was 4-8 fold, the concentration in solution ([9]; saline with 50 mM HP-βCD) was over 8000 µg/mL and the “stability of aqueous solution” value [2] was “stable”. The “D(v, 0.5)” value [4] was 22 microns, the “D(v, 0.9)” value [4] was 80 microns and the “Av Drug Content per vial” value [5] was “Av Drug RGA40/1 20.0 ± 2.0 mg 18.5 ± 0.7 1 Nov. 2006 Passed”. The “Particle Size D(0.5)” value [6] was “Particle RGA40/2 D(0.5) = <20 12.7 3 Nov. 2006 Passed”, the “Particle Size D(0.9)” value [6] was “Size D(0.9) = <30 30.0” and the pH [7] was “pH RGA40/3 6.0-8.0 7.0 3 Nov. 2006 Passed”.

With `C[C@]12CCC(=O)C=C1CC[C@H]1[C@@H]3CC[C@](O)(C(=O)CO)[C@@]3(C)C[C@H](O)[C@@]12F` [FLU, fludrocortisone] the “drug concentration remaining, % of original concentration” value ([1]; saturated solution in saline, 60° C., after two weeks) was 20%, the “stability in saline over time” value ([1]; saturated solution in saline, 60° C., up to 14 days) was “marked instability” and the “stability of aqueous solution” value [2] was “partly degraded”. For the same compound, the “ERG in the other groups / other eyes” value ([10]; intravitreal 400 μg, 1 mg, 2 mg/0.1 ml and remaining eyes, two weeks after injection) was “no significant decrease in ERG”, the “eyes with decreases in ERG” value ([10]; intravitreal 4 mg/0.1 ml, two weeks after injection) was “One” and the “eyes with vitreous hemorrhage” value ([10]; intravitreal 4 mg/0.1 ml) was “one”. The “signs of retinal toxicity on slit-lamp examination, indirect ophthalmoscopy or light microscopy” value ([10]; rabbit, in vivo) was “no signs of retinal toxicity”.

`C[C@]12CCC(=O)C=C1CC[C@@H]1[C@@H]2[C@@H](O)C[C@@]2(C)[C@H]1CC[C@]2(O)C(=O)CO` [Hydrocortisone (cortisol), Hydrocortisone] gave a GR potency (glucocorticoid receptor) of 1, an MR potency [8] of 1 and a half-life [11] of 8 h.

In the case of `C[C@H]1C[C@@H]2[C@H]([C@@H](O)C[C@@]3(C)[C@H]2CC[C@]3(O)C(=O)CO)[C@@]2(C)C=CC(=O)C=C12` [Methylprednisolone], the half-life [11] is reported as 18 to 40 h.

In the case of `C[C@]12C=CC(=O)C=C1CC[C@@H]1[C@@H]2[C@@H](O)C[C@@]2(C)[C@H]1CC[C@]2(O)C(=O)CO` [Prednisolone], the GR potency (glucocorticoid receptor) is reported as 4, the MR potency [8] is reported as 0.8 and the half-life [11] is reported as 16 to 36 h.

With `C[C@]12C=CC(=O)C=C1CC[C@@H]1[C@@H]2C(=O)C[C@@]2(C)[C@H]1CC[C@]2(O)C(=O)CO` [Prednisone] the MR potency [8] was 0.8 and the half-life [11] was 16 to 36 h.

For `CC1(C)O[C@@H]2C[C@H]3[C@@H]4CCC5=CC(=O)C=C[C@]5(C)[C@@]4(F)[C@@H](O)C[C@]3(C)[C@]2(C(=O)CO)O1` [TA, triamcinolone acetonide], the “absolute solubility (compared with FLU)” value [9] was “lower overall”, the “aqueous solubility relative to the other compounds” value [9] was “very low” and the “stability of aqueous solution” value [2] was “moderately stable”.

Compound `C[C@]12C=CC(=O)C=C1CC[C@H]1[C@@H]3C[C@@H](O)[C@](O)(C(=O)CO)[C@@]3(C)C[C@H](O)[C@@]12F` [Triamcinolone] has a GR potency (glucocorticoid receptor) of 5, an MR potency [8] of 0 and a half-life [11] of 12 to 36 h.
